Test results taken from the NIST ThermoML archive (doi:10.1016/j.jct.2011.10.001).
± gives the expanded uncertainty stated by the source.

Test: Molar enthalpy of transition or fusion
Conditions: Crystal; Adiabatic calorimetry

Molar enthalpy of transition or fusion: 11.4 ± 0.12 kJ/mol
SMILES: CCCC(=O)OC [methyl butanoate]
